Source: PMC11233931, “Remodeling tumor‐associated macrophage for anti‐cancer effects by rational design of irreversible inhibition of mitogen‐activated protein kinase‐activated protein kinase 2” (MedComm, 2024)
Read-outs that look alike come from different tables or passages of the source.

Legend:
Assay in all cases: Eurofins kinase selectivity profile against 380 other human recombinant kinases (Table S2)
Type in all cases: biochemical
[1] = biological target: T1, 380 human recombinant protein kinases (Homo sapiens, UniProt O00506); conditions: STK25(h), read-out: Inhibition rate (%)
T1 construct: purchased Eurofins (Celle Lévescault)
T1 sequence (O00506 whole entry): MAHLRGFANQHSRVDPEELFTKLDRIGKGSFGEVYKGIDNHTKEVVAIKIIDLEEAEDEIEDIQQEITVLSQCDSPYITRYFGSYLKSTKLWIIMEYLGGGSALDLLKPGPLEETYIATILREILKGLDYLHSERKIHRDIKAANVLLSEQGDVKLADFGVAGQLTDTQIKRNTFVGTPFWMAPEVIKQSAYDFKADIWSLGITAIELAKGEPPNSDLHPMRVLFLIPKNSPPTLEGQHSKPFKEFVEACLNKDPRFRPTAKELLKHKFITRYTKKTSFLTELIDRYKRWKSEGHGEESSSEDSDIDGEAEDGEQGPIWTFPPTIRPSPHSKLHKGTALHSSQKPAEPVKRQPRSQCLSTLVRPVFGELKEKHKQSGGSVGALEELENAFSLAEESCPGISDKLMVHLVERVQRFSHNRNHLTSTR
In short: (§1)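 Commercial selectivity screen of the test compound against a panel of 380 human recombinant protein kinases, run by an outside contractor at several compound concentrations to check whether its potency was specific for MK2.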

[2] = biological target: T2, 380 human recombinant protein kinases (Homo sapiens, UniProt Q13131); conditions: AMPKα1(h), read-out: Inhibition rate
T2 construct: purchased Eurofins (Celle Lévescault)
T2 sequence (Q13131 whole entry): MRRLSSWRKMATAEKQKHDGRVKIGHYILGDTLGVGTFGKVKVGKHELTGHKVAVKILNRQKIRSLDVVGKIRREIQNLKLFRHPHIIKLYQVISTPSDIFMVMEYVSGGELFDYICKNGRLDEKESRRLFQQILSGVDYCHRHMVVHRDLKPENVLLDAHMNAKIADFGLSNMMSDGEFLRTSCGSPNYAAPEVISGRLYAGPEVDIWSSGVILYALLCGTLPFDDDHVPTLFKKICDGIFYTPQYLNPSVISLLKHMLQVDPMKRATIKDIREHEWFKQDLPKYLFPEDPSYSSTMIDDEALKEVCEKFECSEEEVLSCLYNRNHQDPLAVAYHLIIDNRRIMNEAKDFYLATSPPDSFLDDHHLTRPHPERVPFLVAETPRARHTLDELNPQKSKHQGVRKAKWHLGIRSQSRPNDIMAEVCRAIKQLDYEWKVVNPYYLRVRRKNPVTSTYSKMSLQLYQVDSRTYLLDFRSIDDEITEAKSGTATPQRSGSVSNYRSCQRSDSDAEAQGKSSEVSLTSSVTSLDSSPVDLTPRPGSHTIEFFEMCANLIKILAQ
In short: as §1

[3] = biological target: T3, 380 human recombinant protein kinases (Homo sapiens, UniProt Q16654); conditions: PDHK4(h), read-out: Inhibition rate
T3 construct: purchased Eurofins (Celle Lévescault)
T3 sequence (Q16654 whole entry): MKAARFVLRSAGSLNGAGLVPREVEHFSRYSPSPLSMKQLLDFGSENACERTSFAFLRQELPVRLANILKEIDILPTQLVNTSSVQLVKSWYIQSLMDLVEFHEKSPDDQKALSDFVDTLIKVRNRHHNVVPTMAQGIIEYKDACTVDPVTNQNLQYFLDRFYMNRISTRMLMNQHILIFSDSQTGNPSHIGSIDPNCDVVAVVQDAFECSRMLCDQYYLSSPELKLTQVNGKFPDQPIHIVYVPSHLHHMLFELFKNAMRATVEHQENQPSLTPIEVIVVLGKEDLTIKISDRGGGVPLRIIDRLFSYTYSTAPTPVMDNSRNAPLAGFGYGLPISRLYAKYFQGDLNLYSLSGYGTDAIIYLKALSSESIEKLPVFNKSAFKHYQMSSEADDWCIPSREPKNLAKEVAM
In short: as §1

[4] = biological target: T4, 380 human recombinant protein kinases (Homo sapiens, UniProt Q08881); conditions: Itk(h), read-out: Inhibition rate
T4 construct: purchased Eurofins (Celle Lévescault)
T4 sequence (Q08881 1-620): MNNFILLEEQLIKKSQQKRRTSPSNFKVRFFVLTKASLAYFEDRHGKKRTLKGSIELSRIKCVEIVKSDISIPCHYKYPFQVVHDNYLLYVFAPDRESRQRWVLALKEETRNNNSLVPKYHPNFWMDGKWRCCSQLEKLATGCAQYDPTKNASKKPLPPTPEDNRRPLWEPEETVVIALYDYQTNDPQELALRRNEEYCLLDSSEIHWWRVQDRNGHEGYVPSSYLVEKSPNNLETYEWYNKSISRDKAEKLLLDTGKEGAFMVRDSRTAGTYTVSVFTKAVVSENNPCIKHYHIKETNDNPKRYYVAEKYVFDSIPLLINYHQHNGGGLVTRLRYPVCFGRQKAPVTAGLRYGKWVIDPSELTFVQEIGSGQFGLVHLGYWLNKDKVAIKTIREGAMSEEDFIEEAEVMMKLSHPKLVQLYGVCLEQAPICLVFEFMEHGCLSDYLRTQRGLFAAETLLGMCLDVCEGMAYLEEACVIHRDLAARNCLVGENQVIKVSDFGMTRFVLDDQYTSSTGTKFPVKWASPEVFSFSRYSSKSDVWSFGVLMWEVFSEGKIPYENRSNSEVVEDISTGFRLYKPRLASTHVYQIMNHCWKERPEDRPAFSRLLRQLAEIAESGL
In short: as §1

[5] = biological target: T5, 380 human recombinant protein kinases (Homo sapiens, UniProt O96017); conditions: CHK2(h), read-out: Inhibition rate
T5 construct: purchased Eurofins (Celle Lévescault)
T5 sequence (O96017 whole entry): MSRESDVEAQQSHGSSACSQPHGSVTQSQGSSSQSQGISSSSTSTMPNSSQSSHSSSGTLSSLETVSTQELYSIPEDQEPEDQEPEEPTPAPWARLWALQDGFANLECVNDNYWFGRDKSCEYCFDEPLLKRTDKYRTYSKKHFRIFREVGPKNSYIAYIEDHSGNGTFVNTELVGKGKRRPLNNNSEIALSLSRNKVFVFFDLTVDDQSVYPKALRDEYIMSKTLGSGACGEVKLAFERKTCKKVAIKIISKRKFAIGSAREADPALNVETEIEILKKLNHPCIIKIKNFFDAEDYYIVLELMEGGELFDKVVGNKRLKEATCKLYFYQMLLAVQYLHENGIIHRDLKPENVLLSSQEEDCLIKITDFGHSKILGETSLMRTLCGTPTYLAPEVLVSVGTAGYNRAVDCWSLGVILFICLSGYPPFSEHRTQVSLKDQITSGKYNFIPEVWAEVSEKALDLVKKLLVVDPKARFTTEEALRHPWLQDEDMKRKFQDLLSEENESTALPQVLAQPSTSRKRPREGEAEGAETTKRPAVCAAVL
In short: as §1

[6] = biological target: T6, 380 human recombinant protein kinases (Homo sapiens, UniProt Q8TDC3); conditions: BrSK1(h), read-out: Inhibition rate
T6 construct: purchased Eurofins (Celle Lévescault)
T6 sequence (Q8TDC3 1-778): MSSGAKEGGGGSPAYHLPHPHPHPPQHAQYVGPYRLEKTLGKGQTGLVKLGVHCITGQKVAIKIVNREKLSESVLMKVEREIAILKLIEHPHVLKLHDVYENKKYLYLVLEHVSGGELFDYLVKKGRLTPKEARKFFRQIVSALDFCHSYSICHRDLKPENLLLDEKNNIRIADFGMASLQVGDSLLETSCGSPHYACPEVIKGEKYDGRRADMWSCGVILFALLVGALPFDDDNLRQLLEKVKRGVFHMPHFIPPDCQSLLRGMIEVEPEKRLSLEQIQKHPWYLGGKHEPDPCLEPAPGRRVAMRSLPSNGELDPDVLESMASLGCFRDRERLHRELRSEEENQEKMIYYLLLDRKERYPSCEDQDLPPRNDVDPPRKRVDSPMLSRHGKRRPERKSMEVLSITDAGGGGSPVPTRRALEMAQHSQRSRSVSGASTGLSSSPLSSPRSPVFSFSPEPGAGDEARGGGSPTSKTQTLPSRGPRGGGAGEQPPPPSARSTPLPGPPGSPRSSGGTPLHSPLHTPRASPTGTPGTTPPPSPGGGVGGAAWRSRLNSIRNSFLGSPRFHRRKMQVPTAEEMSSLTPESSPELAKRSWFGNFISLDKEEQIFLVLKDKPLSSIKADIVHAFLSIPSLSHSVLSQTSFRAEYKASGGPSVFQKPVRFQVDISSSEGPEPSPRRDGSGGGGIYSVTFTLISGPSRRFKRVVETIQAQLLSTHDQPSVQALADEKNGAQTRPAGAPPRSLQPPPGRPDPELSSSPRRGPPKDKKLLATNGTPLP
In short: as §1

[7] = biological target: T7, 380 human recombinant protein kinases (Homo sapiens, UniProt Q8IU85); conditions: CaMKIδ(h), read-out: Inhibition rate
T7 construct: purchased Eurofins (Celle Lévescault)
T7 sequence (Q8IU85 whole entry): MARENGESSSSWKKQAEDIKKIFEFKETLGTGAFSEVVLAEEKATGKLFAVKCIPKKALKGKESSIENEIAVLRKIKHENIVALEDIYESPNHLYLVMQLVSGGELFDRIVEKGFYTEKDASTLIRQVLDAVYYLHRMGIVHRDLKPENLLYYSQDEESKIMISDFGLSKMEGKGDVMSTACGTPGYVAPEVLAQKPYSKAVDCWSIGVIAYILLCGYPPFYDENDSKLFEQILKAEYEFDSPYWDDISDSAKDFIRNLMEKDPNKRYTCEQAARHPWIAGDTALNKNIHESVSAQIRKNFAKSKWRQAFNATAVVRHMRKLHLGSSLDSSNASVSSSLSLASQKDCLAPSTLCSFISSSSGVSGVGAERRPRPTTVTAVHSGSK
In short: as §1

[8] = biological target: T8, 380 human recombinant protein kinases (Homo sapiens, UniProt P42345); conditions: read-out: Inhibition rate; for inhibition at 0.01 µM: 10 nM; for inhibition at 0.1 µM: 100 nM; for inhibition at 1 µM: 1000 nM
T8 construct: purchased Eurofins (Celle Lévescault)
In short: as §1

[9] = biological target: T9, 380 human recombinant protein kinases (Homo sapiens, UniProt Q9H0K1); conditions: SIK2(h), read-out: Inhibition rate (%)
T9 construct: purchased Eurofins (Celle Lévescault)
T9 sequence (Q9H0K1 whole entry): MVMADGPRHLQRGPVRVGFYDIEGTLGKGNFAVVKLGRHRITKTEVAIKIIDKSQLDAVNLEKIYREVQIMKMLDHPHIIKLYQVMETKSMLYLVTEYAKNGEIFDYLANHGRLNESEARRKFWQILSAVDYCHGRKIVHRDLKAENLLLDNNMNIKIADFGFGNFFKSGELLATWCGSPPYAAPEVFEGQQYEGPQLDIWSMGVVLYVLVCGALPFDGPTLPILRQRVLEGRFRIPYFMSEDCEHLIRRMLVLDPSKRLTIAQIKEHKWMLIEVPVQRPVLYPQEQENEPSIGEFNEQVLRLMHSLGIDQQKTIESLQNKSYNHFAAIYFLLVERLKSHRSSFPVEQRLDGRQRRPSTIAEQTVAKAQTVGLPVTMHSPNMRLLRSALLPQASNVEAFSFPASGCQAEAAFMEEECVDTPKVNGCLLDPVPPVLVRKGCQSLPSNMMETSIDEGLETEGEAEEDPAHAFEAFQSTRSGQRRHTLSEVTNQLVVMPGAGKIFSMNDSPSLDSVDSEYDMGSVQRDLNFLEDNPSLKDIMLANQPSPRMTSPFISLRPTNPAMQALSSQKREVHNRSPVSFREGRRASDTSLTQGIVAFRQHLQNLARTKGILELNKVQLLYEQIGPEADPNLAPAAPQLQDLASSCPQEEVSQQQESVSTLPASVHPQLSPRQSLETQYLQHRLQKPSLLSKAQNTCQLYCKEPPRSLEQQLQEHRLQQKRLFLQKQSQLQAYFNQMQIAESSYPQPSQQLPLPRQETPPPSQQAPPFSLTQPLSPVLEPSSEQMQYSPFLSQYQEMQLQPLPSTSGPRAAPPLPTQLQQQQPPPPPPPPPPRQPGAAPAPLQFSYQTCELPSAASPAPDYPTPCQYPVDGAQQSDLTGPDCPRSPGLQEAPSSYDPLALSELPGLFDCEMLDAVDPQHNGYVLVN
In short: as §1

[10] = biological target: T10, 380 human recombinant protein kinases (Homo sapiens, UniProt P42336, H1047R); conditions: PI3 Kinase (p110α(H1047R)/p85α)(h), read-out: Inhibition rate (%)
T10 construct: purchased Eurofins (Celle Lévescault)
T10 sequence (P42336 whole entry H1047R): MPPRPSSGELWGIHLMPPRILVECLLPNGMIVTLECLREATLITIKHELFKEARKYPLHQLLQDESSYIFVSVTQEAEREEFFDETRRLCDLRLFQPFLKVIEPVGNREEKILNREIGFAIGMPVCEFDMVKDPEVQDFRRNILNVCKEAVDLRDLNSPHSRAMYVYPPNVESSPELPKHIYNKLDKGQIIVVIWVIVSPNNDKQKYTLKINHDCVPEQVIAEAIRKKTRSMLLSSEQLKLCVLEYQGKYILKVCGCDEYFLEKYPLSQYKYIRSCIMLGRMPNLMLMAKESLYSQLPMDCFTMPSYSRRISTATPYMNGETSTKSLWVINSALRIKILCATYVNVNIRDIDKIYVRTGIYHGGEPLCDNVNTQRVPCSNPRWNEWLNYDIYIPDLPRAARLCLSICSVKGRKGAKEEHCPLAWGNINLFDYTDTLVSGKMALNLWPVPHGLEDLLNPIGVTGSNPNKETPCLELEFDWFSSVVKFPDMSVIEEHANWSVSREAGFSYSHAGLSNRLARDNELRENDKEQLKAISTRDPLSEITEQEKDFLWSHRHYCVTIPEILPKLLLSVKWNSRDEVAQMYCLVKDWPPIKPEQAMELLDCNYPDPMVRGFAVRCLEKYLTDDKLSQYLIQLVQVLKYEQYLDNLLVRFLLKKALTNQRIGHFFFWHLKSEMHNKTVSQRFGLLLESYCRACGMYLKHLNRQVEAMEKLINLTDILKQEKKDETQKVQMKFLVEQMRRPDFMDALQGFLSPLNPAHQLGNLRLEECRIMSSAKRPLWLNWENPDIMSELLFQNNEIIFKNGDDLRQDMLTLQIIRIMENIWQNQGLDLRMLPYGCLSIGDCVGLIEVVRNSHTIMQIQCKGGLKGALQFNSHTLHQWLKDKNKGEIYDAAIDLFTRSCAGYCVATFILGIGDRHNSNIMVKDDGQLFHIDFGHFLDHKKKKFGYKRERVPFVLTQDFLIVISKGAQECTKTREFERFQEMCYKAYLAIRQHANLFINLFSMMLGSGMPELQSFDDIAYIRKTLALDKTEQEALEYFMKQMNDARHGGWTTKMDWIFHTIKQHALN
In short: as §1

C=CC(=O)Nc1cc(-c2cc(-c3cc4c([nH]3)CCNC4=O)ccn2)ccc1OC(F)(F)F [compound 11]
inhibition at 0.01 µM ([1]; 10 nM): -4%
inhibition at 0.1 µM ([1]; 100 nM): 1%
inhibition at 1 µM ([1]; 1000 nM): 0%
inhibition at 0.01 µM ([2]; 10 nM): 6%
inhibition at 0.1 µM ([2]; 100 nM): 20%
inhibition at 1 µM ([2]; 1000 nM): 65%
inhibition at 0.01 µM ([3]; 10 nM): -5%
inhibition at 0.1 µM ([3]; 100 nM): -7%
inhibition at 1 µM ([3]; 1000 nM): -19%
inhibition at 0.01 µM ([4]; 10 nM): 1%
inhibition at 0.1 µM ([4]; 100 nM): -2%
inhibition at 1 µM ([4]; 1000 nM): 3%
inhibition at 0.01 µM ([5]; 10 nM): 3%
inhibition at 0.1 µM ([5]; 100 nM): 16%
inhibition at 1 µM ([5]; 1000 nM): 55%
inhibition at 0.01 µM ([6]; 10 nM): -7%
inhibition at 0.1 µM ([6]; 100 nM): -3%
inhibition at 1 µM ([6]; 1000 nM): 17%
inhibition at 0.01 µM ([7]; 10 nM): -3%
inhibition at 0.1 µM ([7]; 100 nM): -6%
inhibition at 1 µM ([7]; 1000 nM): 1%
inhibition at 0.01 µM ([8]; mTOR(h)): -1%
inhibition at 0.1 µM ([8]; mTOR(h)): 2%
inhibition at 1 µM ([8]; mTOR(h)): 7%
inhibition at 0.01 µM ([8]; mTOR/FKBP12(h)): 8%
inhibition at 0.1 µM ([8]; mTOR/FKBP12(h)): 12%
inhibition at 1 µM ([8]; mTOR/FKBP12(h)): 6%
inhibition at 0.01 µM ([9]; 10 nM): 2%
inhibition at 0.1 µM ([9]; 100 nM): 4%
inhibition at 1 µM ([9]; 1000 nM): 8%
inhibition at 0.01 µM ([10]; 10 nM): 0%
inhibition at 0.1 µM ([10]; 100 nM): 0%
inhibition at 1 µM ([10]; 1000 nM): 2%
